Measurements: patent US20260315452A1, “PROTEASE INHIBITORS AND USES THEREOF” (priority 2023, published 2026)
Counter-ions that a name gives are not always drawn. Like-named read-outs stand apart in the source and are kept apart here.

Assays:
SARS-CoV-2 = assay: Anti-SARS-CoV-2 activity in A549 cells expressing the human ACE2 receptor (inhibition of SARS-CoV-2 replication); format: cell-based; settings: for EC50: read-out: Antiviral Activity (EC50)
SARS-CoV-2 3CLpro = SARS-CoV-2 3CLpro (Severe acute respiratory syndrome coronavirus 2, UniProt P0DTD1); assay: biochemical; settings: inhibition of SARS-CoV-2 3CLpro; 15 nM 3CLpro, 25 μM fluorogenic substrate, 37° C.; read-out: Inhibitory Activity (IC50)
[1] = Severe acute respiratory syndrome coronavirus 2, A549-ACE2, 24 h

Row | SMILES | EC50 (SARS-CoV-2; [1]) | IC50 (SARS-CoV-2 3CLpro) | antiviral potency in A549 cells in comparison with compound Ref-2 (SARS-CoV-2; A549 cells, versus Ref-2 (FIG. 7)) | EC50 (SARS-CoV-2; inhibition of SARS-CoV-2 replication in mammalian cells, A549-ACE2 cells, 24 hours infection)
1 | O=C(NC1CC1)c1cc(Br)cc([N+](=O)[O-])c1N[C@@H]1COCC[C@@H]1NC(=O)c1cncc2ccccc12 [Compound 133, N-((3S, 4S)-3-((4-bromo-2-(cyclopropylcarbamoyl)-6-nitrophenyl)amino)tetrahydro-2H-pyran-4-yl)isoquinoline-4-carboxamide] | < 100 nM | < 100 nM | – | –
2 | CNC(=O)c1cc(Br)cc([N+](=O)[O-])c1N1CC(F)(F)C2(CCN(C(=O)c3cncc4ccccc34)C2)C1 (centres unmarked) [Compound 67, 5-bromo-2-(4,4-difluoro-7-(isoquinoline-4-carbonyl)-2,7-diazaspiro[4.4]nonan-2-yl)-N-methyl-3-nitrobenzamide] | 100 to 1000 nM | 100 to 1000 nM | – | –
3 | CNC(=O)c1cc(Cl)cc([N+](=O)[O-])c1N[C@H]1CN(C(=O)c2cncc3ccccc23)CCC1(F)F [Compound 92, (S)-5-chloro-2-((4,4-difluoro-1-(isoquinoline-4-carbonyl)piperidin-3-yl)amino)-N-methyl-3-nitrobenzamide] | < 100 nM | < 100 nM | – | –
4 | CNC(=O)c1cc(Br)cc([N+](=O)[O-])c1N[C@@H]1CCCN(C(=O)c2cncc3ccccc23)C1 [Compound 75, (R)-5-bromo-2-((1-(isoquinoline-4-carbonyl)piperidin-3-yl)amino)-N-methyl-3-nitrobenzamide] | < 100 nM | < 100 nM | – | –
5 | CNC(=O)c1cc(Br)cc([N+](=O)[O-])c1NC(C(C)C)C1CN(C(=O)c2cncc3ccccc23)C1 (stereo in doubt) [Compound 12, (S)-5-bromo-2-((1-(1-(isoquinoline-4-carbonyl)azetidin-3-yl)-2-methylpropyl)amino)-N-methyl-3-nitrobenzamide] | < 100 nM | < 100 nM | – | –
6 | CN1CC[C@@H](NC(=O)c2cc(Cl)cc([N+](=O)[O-])c2N[C@H]2CN(C(=O)c3cncc4ccccc34)CCC2(F)F)C1 [Compound 93, 5-chloro-2-(((S)-4,4-difluoro-1-(isoquinoline-4-carbonyl)piperidin-3-yl)amino)-N-(1-methylpyrrolidin-3-yl)-3-nitrobenzamide hydrochloride] | < 100 nM | < 100 nM | – | –
7 | O=C(NC1CC(F)(F)C1)c1cc(Br)cc([N+](=O)[O-])c1N[C@H]1CN(C(=O)c2cncc3ccccc23)CCC1(F)F [Compound 33, (S)-5-bromo-2-((4,4-difluoro-1-(isoquinoline-4-carbonyl)piperidin-3-yl)amino)-N-(3,3-difluorocyclobutyl)-3-nitrobenzamide] | < 100 nM | < 100 nM | – | –
8 | O=C(N[C@@H]1CCNC1)c1cc(Br)cc([N+](=O)[O-])c1N[C@H]1CN(C(=O)c2cncc3ccccc23)CCC1(F)F [Compound 46, 5-bromo-2-(((S)-4,4-difluoro-1-(isoquinoline-4-carbonyl)piperidin-3-yl)amino)-3-nitro-N-((R)-pyrrolidin-3-yl) benzamide] | < 100 nM | < 100 nM | – | –
9 | CNC(=O)c1cc(Br)cc([N+](=O)[O-])c1N[C@H]1CN(C(=O)c2cncc3ccccc23)CC[C@H]1F [Compound 88, 5-bromo-2-(((3S, 4R)-4-fluoro-1-(isoquinoline-4-carbonyl)piperidin-3-yl)amino)-N-methyl-3-nitrobenzamide] | < 100 nM | < 100 nM | – | –
10 | C[C@@H](NC(=O)c1cc(Br)cc([N+](=O)[O-])c1N[C@@H]1CCCN(C(=O)c2cncc3ccccc23)C1)C(F)(F)F [Compound 81, 5-bromo-2-(((R)-1-(isoquinoline-4-carbonyl)piperidin-3-yl)amino)-3-nitro-N-((R)-1,1,1-trifluoropropan-2-yl)benzamide] | < 100 nM | < 100 nM | – | –
11 | O=C(N[C@@H]1CCOC1)c1cc(Br)cc([N+](=O)[O-])c1N[C@H]1CN(C(=O)c2cncc3ccccc23)CCC1(F)F [Compound 37, 5-bromo-2-(((S)-4,4-difluoro-1-(isoquinoline-4-carbonyl)piperidin-3-yl)amino)-3-nitro-N-((R)-tetrahydrofuran-3-yl)benzamide] | < 100 nM | < 100 nM | better antiviral potency | –
12 | O=C(NC1CC(F)(F)C1)c1cc(Br)cc(C(F)(F)F)c1N[C@H]1CN(C(=O)c2cncc3ccccc23)CCC1(F)F [Compound 144, (S)-5-bromo-2-((4,4-difluoro-1-(isoquinoline-4-carbonyl)piperidin-3-yl)amino)-N-(3,3-difluorocyclobutyl)-3-(trifluoromethyl)benzamide] | < 100 nM | < 100 nM | – | –
13 | O=C(NC1CC(F)(F)C1)c1cc(Br)cc(C(F)(F)F)c1N[C@@H]1COCC[C@@H]1NC(=O)c1cncc2ccccc12 [Compound 79, N-((3S, 4S)-3-((4-bromo-2-((3,3-difluorocyclobutyl)carbamoyl)-6-(trifluoromethyl)phenyl)amino)tetrahydro-2H-pyran-4-yl)isoquinoline-4-carboxamide] | 100 to 1000 nM | < 100 nM | – | –
14 | O=C(NC1CCOC1)c1cc(Cl)cc([N+](=O)[O-])c1N[C@H]1CN(C(=O)c2cncc3ccccc23)CCC1(F)F (stereo in doubt) [Compound 159, 5-chloro-2-(((S)-4,4-difluoro-1-(isoquinoline-4-carbonyl)piperidin-3-yl)amino)-3-nitro-N-((S)-tetrahydrofuran-3-yl)benzamide] | – | – | – | < 100 nM
15 | CNC(=O)c1cc(Br)cc([N+](=O)[O-])c1N[C@H]1CN(C(=O)c2cnc3ccccn23)CCC1(F)F [Compound 101, (S)-5-bromo-2-((4,4-difluoro-1-(imidazo[1,2-a]pyridine-3-carbonyl)piperidin-3-yl)amino)-N-methyl-3-nitrobenzamide] | – | < 100 nM | – | –
16 | CC(C)C(Nc1c(-c2nnc[nH]2)cc(Br)cc1[N+](=O)[O-])C1CN(C(=O)c2cncc3ccccc23)C1 (centres unmarked) [Compound 17, (3-(1-((4-bromo-2-nitro-6-(4H-1,2,4-triazol-3-yl)phenyl)amino)-2-methylpropyl)azetidin-1-yl)(isoquinolin-4-yl)methanone] | – | 100 to 1000 nM | – | –
17 | CNC(=O)c1cc(Br)cc([N+](=O)[O-])c1N1CCC2(CCN(C(=O)c3cncnc3)C2)C1 (centres unmarked) [Compound 21] | – | ≥ 10000 nM | – | –
18 | CNC(=O)c1cc(Br)cc([N+](=O)[O-])c1N[C@H]1CN(C(=O)c2cncc(-n3cccn3)c2)CCC1(F)F [Compound 39, (S)-2-((1-(5-(1H-pyrazol-1-yl)nicotinoyl)-4,4-difluoropiperidin-3-yl)amino)-5-bromo-N-methyl-3-nitrobenzamide] | – | 100 to 1000 nM | – | –
19 | CNC(=O)c1cc(Br)cc([N+](=O)[O-])c1N[C@H]1CN(C(=O)c2cncc3ccccc23)CC[C@@H]1F [Compound 87, 5-bromo-2-(((3S, 4S)-4-fluoro-1-(isoquinoline-4-carbonyl)piperidin-3-yl)amino)-N-methyl-3-nitrobenzamide] | – | < 100 nM | – | –
20 | O=C(c1cc(Cl)cc([N+](=O)[O-])c1N[C@H]1CN(C(=O)c2cncc3cccnc23)CCC1(F)F)N1CC(O)C1 [Compound 112, (S)-(5-chloro-2-((4,4-difluoro-1-(1,6-naphthyridine-8-carbonyl)piperidin-3-yl)amino)-3-nitrophenyl)(3-hydroxyazetidin-1-yl)methanone] | – | < 100 nM | – | –
21 | CNC(=O)c1cc(Br)cc([N+](=O)[O-])c1O[C@@H]1CN(C(=O)c2cncc3ccccc23)CCC1(F)F [Compound 179, (R)-5-bromo-2-((4,4-difluoro-1-(isoquinoline-4-carbonyl)piperidin-3-yl)oxy)-N-methyl-3-nitrobenzamide] | – | 100 to 1000 nM | – | –
